# ± gives the expanded uncertainty stated by the source.
# Settings: 101.33 kPa, Liquid; for viscosity: Falling or rolling sphere viscometry; for speed of sound: Sing-around technique in a fixed-path interferometer; for mass density: Vibrating tube method
Structure (SMILES),viscosity (293.15 K),speed of sound (293.15 K),mass density (293.15 K),viscosity (298.15 K),speed of sound (298.15 K),mass density (298.15 K),viscosity (303.15 K),speed of sound (303.15 K),mass density (303.15 K),viscosity (308.15 K),speed of sound (308.15 K),mass density (308.15 K),viscosity (313.15 K),speed of sound (313.15 K),mass density (313.15 K),viscosity (318.15 K),speed of sound (318.15 K),mass density (318.15 K),viscosity (323.15 K),speed of sound (323.15 K),also measured
CCCCCC(=O)[O-].C[NH+]1CCCC1=O [N-methyl-2-oxopyrrolidinium hexanoate],5.211 ± 0.066 mPa·s,1431.4 ± 2.3 m/s,983.01 ± 0.82 kg/m3,4.549 ± 0.058 mPa·s,1414.2 ± 2.3 m/s,978.81 ± 0.81 kg/m3,3.998 ± 0.051 mPa·s,1396.7 ± 2.3 m/s,974.6 ± 0.81 kg/m3,3.543 ± 0.045 mPa·s,1379.3 ± 2.3 m/s,970.39 ± 0.8 kg/m3,3.163 ± 0.04 mPa·s,1362 ± 2.3 m/s,966.18 ± 0.8 kg/m3,2.843 ± 0.036 mPa·s,1344.8 ± 2.3 m/s,961.96 ± 0.79 kg/m3,2.57 ± 0.033 mPa·s,1327.6 ± 2.3 m/s,mass density (323.15 K): 957.74 ± 0.79 kg/m3; viscosity (328.15 K): 2.336 ± 0.03 mPa·s; speed of sound (328.15 K): 1310.6 ± 2.3 m/s; mass density (328.15 K): 953.51 ± 0.78 kg/m3; viscosity (333.15 K): 2.135 ± 0.028 mPa·s; speed of sound (333.15 K): 1293.7 ± 2.3 m/s; mass density (333.15 K): 949.28 ± 0.78 kg/m3; viscosity (338.15 K): 1.96 ± 0.026 mPa·s; speed of sound (338.15 K): 1276.8 ± 2.3 m/s; mass density (338.15 K): 945.04 ± 0.77 kg/m3; viscosity (343.15 K): 1.808 ± 0.024 mPa·s; speed of sound (343.15 K): 1260.2 ± 2.3 m/s; mass density (343.15 K): 940.79 ± 0.77 kg/m3
CC(=O)[O-].C[NH+]1CCCC1=O [N-methyl-2-oxopyrrolidinium acetate],2.933 ± 0.037 mPa·s,1491.5 ± 2.3 m/s,1050.71 ± 0.94 kg/m3,2.622 ± 0.034 mPa·s,1473.5 ± 2.3 m/s,1046.06 ± 0.93 kg/m3,2.364 ± 0.031 mPa·s,1455.1 ± 2.3 m/s,1041.42 ± 0.92 kg/m3,2.144 ± 0.028 mPa·s,1436.9 ± 2.3 m/s,1036.77 ± 0.91 kg/m3,1.959 ± 0.026 mPa·s,1418.7 ± 2.3 m/s,1032.12 ± 0.9 kg/m3,1.799 ± 0.024 mPa·s,1400.6 ± 2.3 m/s,1027.46 ± 0.89 kg/m3,1.66 ± 0.023 mPa·s,1382.6 ± 2.3 m/s,mass density (323.15 K): 1022.79 ± 0.88 kg/m3; viscosity (328.15 K): 1.54 ± 0.021 mPa·s; speed of sound (328.15 K): 1364.7 ± 2.3 m/s; mass density (328.15 K): 1018.12 ± 0.87 kg/m3; viscosity (333.15 K): 1.435 ± 0.02 mPa·s; speed of sound (333.15 K): 1346.9 ± 2.3 m/s; mass density (333.15 K): 1013.44 ± 0.86 kg/m3; viscosity (338.15 K): 1.344 ± 0.019 mPa·s; speed of sound (338.15 K): 1329.2 ± 2.3 m/s; mass density (338.15 K): 1008.75 ± 0.86 kg/m3; viscosity (343.15 K): 1.264 ± 0.018 mPa·s; speed of sound (343.15 K): 1311.5 ± 2.3 m/s; mass density (343.15 K): 1004.05 ± 0.85 kg/m3
CCCCC(=O)[O-].C[NH+]1CCCC1=O [N-methyl-2-oxopyrrolidinium pentanoate],4.448 ± 0.056 mPa·s,1427.7 ± 2.3 m/s,994.31 ± 0.83 kg/m3,3.91 ± 0.05 mPa·s,1410.5 ± 2.3 m/s,990.01 ± 0.83 kg/m3,3.465 ± 0.044 mPa·s,1393 ± 2.3 m/s,985.7 ± 0.82 kg/m3,3.093 ± 0.039 mPa·s,1375.4 ± 2.3 m/s,981.38 ± 0.82 kg/m3,2.779 ± 0.036 mPa·s,1358 ± 2.3 m/s,977.06 ± 0.81 kg/m3,2.513 ± 0.032 mPa·s,1340.7 ± 2.3 m/s,972.73 ± 0.81 kg/m3,2.284 ± 0.03 mPa·s,1323 ± 2.3 m/s,mass density (323.15 K): 968.39 ± 0.8 kg/m3; viscosity (328.15 K): 2.087 ± 0.028 mPa·s; speed of sound (328.15 K): 1305.7 ± 2.3 m/s; mass density (328.15 K): 964.05 ± 0.8 kg/m3; viscosity (333.15 K): 1.917 ± 0.026 mPa·s; speed of sound (333.15 K): 1288.7 ± 2.3 m/s; mass density (333.15 K): 959.71 ± 0.79 kg/m3; viscosity (338.15 K): 1.769 ± 0.024 mPa·s; speed of sound (338.15 K): 1271.8 ± 2.3 m/s; mass density (338.15 K): 955.36 ± 0.79 kg/m3; viscosity (343.15 K): 1.64 ± 0.022 mPa·s; speed of sound (343.15 K): 1255 ± 2.3 m/s; mass density (343.15 K): 951.01 ± 0.78 kg/m3

# From the NIST ThermoML archive (doi:10.1016/j.fluid.2014.11.024)
